How the values were obtained:
SHIP enzyme = assay: In vitro SHIP enzyme assay (Assay 1); format: biochemical; as to Assay Number 1: SHIP enzyme assay: key: a ‘+’ indicates a positive result for desired activity; a ‘−’ indicates a negative result for desired activity
Protocol: Assay 1) In vitro testing in a SHIP enzyme assay. Test compounds were dissolved in a suitable solvent (e.g. EtOH, DMSO and others) and diluted into aqueous buffer (20 mM Tris HCl, pH 7.5 and 10 mM MgCl2). SHIP enzyme assays were performed in 96-well microtitre plates with 10 ng of enzyme/well in a total volume of 25 μL of 20 mM Tris HCl, pH 7.5 and 10 mM MgCl2. SHIP enzyme was incubated with test extracts (provided in solvent) or vehicle for 15 min at 23° C. before the addition of 100 μM inositol-1,3,4,5-tetrakisphosphate (Echelon Biosciences Inc, Salt Lake City, Utah). After 20 min at 37° C. and the amount of inorganic phosphate released assessed by the addition of Malachite Green reagent and absorbance measurement at 650 nm.
For in vitro testing in the SHIP enzyme assay, AQX-016A and Compound 100 were dissolved in EtOH and diluted into aqueous buffer (20 mM Tris HCl, pH 7.5 and 10 mM MgCl2). The actual concentration of drug in solution was determined by optical density measurement at 280 nm (λmax for both compounds) after high speed centrifugation at 14 000×g for 30 min to remove precipitated drug. For testing on cells, compounds were formulated in the carrier cyclodextrin (Cyclodex Technologies, High Springs, Fla.) at 6 mM (2 mg/mL). For oral administration to animals, compounds were dissolved in 100% cremophore EL (Sigma-Aldrich Canada, Oakville, Ontario) at 150 mM (50 mg/mL) prior to dilution to 6 mM in phosphate buffer saline. However, while these compounds caged in cyclodextrin or formulated in cremophore EL micelles were very soluble in aqueous solution, they could not be used in the SHIP enzyme assays because of interference from both cyclodextrin and cremophore EL.
N-terminal His6 tagged SHIP enzyme was expressed in mammalian 293T cells by transient transfection with pME18S-His-SHIP plasmid and purified to >95% homogeneity by Ni-chelating bead chromatography (Qiagen, Mississauga, Ontario). Recombinant SHIP C2 domain (amino acid residues 725 to 863) was expressed in E. coli transformed with a pET28C expression vector constructed as described below. Recombinant protein purified from the cell lysates by Nichelating bead chromatography was >95% pure.
In vitro SHIP enzyme assay. SHIP enzyme assays were performed in 96-well microtitre plates with 10 ng of enzyme/well in a total volume of 25 μL of 20 mM Tris HCl, pH 7.5 and 10 Mm MgCl2. SHIP enzyme was incubated with test extracts (provided in DMSO) or vehicle for 15 min at 23° C. before the addition of 100 μM inositol-1,3,4,5-tetrakisphosphate (Echelon Biosciences Inc, Salt Lake City, Utah). After 20 min at 37° C. and the amount of inorganic phosphate released assessed by the addition of Malachite Green reagent and absorbance measurement at 650 nm. SHIP2 enzyme was purchased from Echelon Biosciences (Salt Lake City, Utah) and an equivalent amount of inositol phosphatase activity was used in the in vitro enzyme assay. Enzyme data are expressed as the mean of triplicates +/−SEM. Experiments were performed at least 3 times. (FIGS. 7A and 7B).

[1] = system: 100 protein kinase and phosphatase targets; assay: Profiling on 100 protein kinase and phosphatase targets; format: biochemical; conditions: 2 μM final concentration
Protocol: Compound profiling activity was undertaken using 100 protein kinase and phosphatase targets by SignalChem (Richmond, BC, Canada. www.signalchem.com) against compound Compound 100 (2 μM final concentration). Protein kinase assays were performed in the presence of 50 μM ATP at 30° C. for 15 min. Protein phosphatase activities were determined using pNPP as substrate and were also performed at 37° C. for 15 min. The activity of the enzymes in the presence of Compound 100 was compared to that in the vehicle control and expressed as a % change in activity relative to that observed in the vehicle control. Changes in activity of <25% were not considered significant. Enzymes affected by Compound 100 are plotted in an expanded graph in FIG. 12B.

Assay Number 1: SHIP enzyme assay (SHIP enzyme; 100 μM inositol-1,3,4,5-tetrakisphosphate, Malachite Green): +
SHIP enzyme activity (SHIP enzyme; wild-type SHIP): enhanced SHIP enzyme activity in vitro
off-target effects [1]: minimal off-target effects
SMILES: Cc1cc(O)cc2c1[C@]1(C)CCC3C(C)(C)CCC[C@]3(C)[C@H]1C2 (stereo partly drawn) [Compound 100]
